Measured values taken from patent publication US9540389B2, “Antimicrobial potentiators” (priority 2013, dated 2017).
In brackets after ≈: the same amount, converted by molar mass.

Columns and labels:
P. aeruginosa ATCC 27853 = assay: MIC assay (microbroth dilution) ± 25 μM EPI; type: cell-based, Pseudomonas aeruginosa
Description: (§1) • Strains and Reagents. The following strains were obtained from the Keio collection (Baba, et al.: Construction of Escherichia coli K-12 in-frame, single-gene knockout mutants: the Keio collection. In Mol Syst Biol, vol. 2, pp. 2006 0008, (2006)): JW0451 (ΔacrB::kan), JW5503 (ΔtolC::kan), JW3234 (ΔacrF::kan), JW2661 (ΔemrB::kan), JW0863 (ΔmacB::kan). The deletion mutations in each of these strains were transferred to AB1157 using P1 phage transduction (see Table 1). The construction of the E. coli cell-based reporter strain (SOS-XXX) that was used for high throughput screening is described in detail in the supplementary information. […] Irgasan was a generous gift from Ciba Speciality Chemicals, Inc. (High Point, N.C.). Hoechst 33342 (H33342) was purchased from Molecular Probes (Eugene, Oreg.). […] Luria Broth (Miller) and agar were purchased as prepared dehydrated media from Becton Dickenson (Franklin Lakes, N.J.). The compound libraries used in high-throughput screens were purchased from Chembridge (San Diego, Calif.), ChemDiv (San Diego, Calif.), and TimTec (Newark, Del.). MBX2319 was synthesized by Microbiotix, Inc. • Antibacterial Activity Assays. The minimal inhibitory concentration (MIC) of antibacterial agents and biocides were determined using the microbroth dilution method essentially as described in the CLSI protocol M7-A7 (CLSI: Method for dilution antimicrobial susceptibility testing for bacteria that grow aerobically; Approved standard-document M7-A7. In Clinical and Laboratory Standards Institute document M7-A7, Clinical and Laboratory Standards Institute, Wayne, Pa., (2006)), with the following exceptions. LB media was used instead of MHB. […] The final concentration of DMSO in each assay was 2%. […] MIC assays were performed in triplicate and the geometric mean was calculated. Checkerboard MIC assays using an EPI and an antibacterial agent were performed essentially as described (Pillai, et al.: Antimicrobial Combinations. In Antibiotics in Laboratory Medicine, ed. by V. Lorian, pp. 365-440, Lippincott Williams & Wilkins, Philadelphia, Pa., (2005)), with the same modifications used for the MIC assays described above. • Time-Kill Assays. Killing curve assays were performed essentially as described (Pillai, et al.: Antimicrobial Combinations. In Antibiotics in Laboratory Medicine, ed. by V. Lorian, pp. 365-440, Lippincott Williams & Wilkins, Philadelphia, Pa., (2005)). Exponential bacterial cultures grown in LB were diluted to a cell density of ˜1×10^7 in LB followed by addition of CIP and/or an EPI. Viability was monitored over 2-4 hours by making serial dilutions in saline and spotting 5 μl of each dilution onto the surface of an LB agar plate in triplicate. Colonies were counted after the plates were incubated at 37° C. for 16-18 hr, colony forming units (CFU) per ml were calculated, and the average and standard deviation for the three replicates was determined. For treatments that decreased CFU/ml below the limit of detection for the spot plating method, the 100 μl samples were diluted into 5 ml LB top agar, were poured onto LB agar plates, and incubated for 18 hr at 37° C. To calculate the fraction of the control for each sample, the average CFU/ml values for treated samples were divided by those from the same sample at 0 h (time=0). Each experiment was repeated at least three times, and a representative experiment is shown. • H33342 Accumulation Assay. The rate of accumulation of the fluorescent dye Hoechst 33342 (H33342), which is a substrate of a wide variety of bacterial efflux pumps (van den Berg van Saparoea, et al., Biochemistry, vol. 44, pp. 16931-16938, (2005)), can be used to estimate the activity of the major efflux pumps in E. coli and many other bacterial species. The H33342 accumulation assay was used to evaluate the effect of EPIs on the activity of the AcrAB-TolC efflux pump in several bacterial species essentially as described (Coldham, et al., J Antimicrob Chemother, vol. 65, pp. 1655-1663, (2010)). […]

[1] = test system: Shigella flexneri ATCC 12022; assay: MIC assay (microbroth dilution) ± 25 μM EPI; type: cell-based
Description: as §1

Escherichia coli AB1157 [2] = assay: MIC assay (microbroth dilution) ± 25 μM EPI; type: cell-based; conditions: E. coli AB1157 (WT); + 25 μM MBX2319; geometric mean
Description: as §1

Escherichia coli 331 = assay: MIC assay (microbroth dilution) ± 25 μM EPI; type: cell-based; conditions: E. coli 331
Description: as §1

[3] = test system: Salmonella enterica ATCC 14028; assay: MIC assay (microbroth dilution) ± 25 μM EPI; type: cell-based
Description: as §1

[4] = test system: Klebsiella pneumoniae ATCC 700603; assay: MIC assay (microbroth dilution) ± 25 μM EPI; type: cell-based
Description: as §1

[5] = test system: Enterobacter aerogenes ATCC 13048; assay: MIC assay (microbroth dilution) ± 25 μM EPI; type: cell-based
Description: as §1

[6] = test system: Escherichia coli ATCC 25922; assay: MIC assay (microbroth dilution) ± 25 μM EPI; type: cell-based; conditions: E. coli ATCC 25922
Description: as §1

Escherichia coli AB1157 [7] = assay: microbe, parasite or virus in culture
[8] = test system: Escherichia coli AB1157 ΔtolC; assay: Checkerboard MIC assay (antibacterial agent + MBX2319); type: cell-based
Description: as §1

[9] = test system: Escherichia coli AB1157 ΔacrB; assay: as above; type: cell-based
Description: as §1

[10] = test system: Escherichia coli AB1157 (WT); assay: as above; type: cell-based; conditions: WT
Description: as §1

[11] = test system: Escherichia coli AB1157 ΔacrF; assay: as above; type: cell-based
Description: as §1

[12] = Escherichia coli, read-out: MIC (μg/ml) with MBX2319 at concn (μM) of: 0

In the case of C[C@H]1COc2c(N3CCN(C)CC3)c(F)cc3c(=O)c(C(=O)O)cn1c23 [Levofloxacin], the “MIC (μg/ml) ± EPI: MBX2319” value (P. aeruginosa ATCC 27853; + 25 μM MBX2319) is reported as 1 µg/mL, the “MIC (μg/ml) ± EPI: PAβN” value (P. aeruginosa ATCC 27853; + 25 μM PAβN) is reported as 0.5 µg/mL and the MIC (P. aeruginosa ATCC 27853; Pseudomonas aeruginosa, ATCC27853, no EPI, read-out: MIC (μg/ml) ± EPI: None) is reported as 1 µg/mL. For the same compound, the “MIC (μg/ml) ± EPI: MBX2319” value ([1]; Shigella flexneri ATCC 12022, + 25 μM MBX2319) was 0.016 µg/mL, the “MIC (μg/ml) ± EPI: PAβN” value ([1]; Shigella flexneri ATCC 12022, + 25 μM PAβN) was 0.031 µg/mL and the MIC ([1]; Shigella flexneri, ATCC12022, read-out: MIC (μg/ml) ± EPI: None) was 0.063 µg/mL. The “MICs (μg/ml) ± EPIs: MBX2319” value (Escherichia coli AB1157 [2]) was 0.016 µg/mL, the “MIC (μg/ml) ± EPI: MBX2319” value (Escherichia coli 331; + 25 μM MBX2319) was 11.3 µg/mL and the “MIC (μg/ml) ± EPI: PAβN” value (Escherichia coli 331; + 25 μM PAβN) was 32 µg/mL. The MIC (Escherichia coli 331; Escherichia coli, no EPI, read-out: MIC (μg/ml) ± EPI: None) was 64 µg/mL, the “MIC (μg/ml) ± EPI: MBX2319” value ([3]; + 25 μM MBX2319) was 0.016 µg/mL and the “MIC (μg/ml) ± EPI: PAβN” value ([3]; + 25 μM PAβN) was 0.044 µg/mL. The MIC ([3]; ATCC14028, no EPI, read-out: MIC (μg/ml) ± EPI: None) was 0.062 µg/mL, the “MIC (μg/ml) ± EPI: MBX2319” value ([4]; + 25 μM MBX2319) was 0.149 µg/mL and the “MIC (μg/ml) ± EPI: PAβN” value ([4]; + 25 μM PAβN) was 0.5 µg/mL. The MIC ([4]; ATCC700603, no EPI, read-out: MIC (μg/ml) ± EPI: None) was 0.71 µg/mL, the “MIC (μg/ml) ± EPI: MBX2319” value ([5]; + 25 μM MBX2319) was 0.044 µg/mL and the “MIC (μg/ml) ± EPI: PAβN” value ([5]; + 25 μM PAβN) was 0.063 µg/mL. For the same compound, the MIC ([5]; Klebsiella aerogenes, ATCC13048, no EPI, read-out: MIC (μg/ml) ± EPI: None) was 0.177 µg/mL, the “MIC (μg/ml) ± EPI: MBX2319” value ([6]; + 25 μM MBX2319) was 0.013 µg/mL and the “MIC (μg/ml) ± EPI: PAβN” value ([6]; + 25 μM PAβN) was 0.022 µg/mL. The MIC (Escherichia coli AB1157 [7]) was 0.06 µg/mL (≈ 0.166 µM), the MIC [8, 12] was 0.016 µg/mL and the “MIC (μg/ml) with MBX2319 at concn (μM) of: 1.56” value ([8]; ΔtolC, MBX2319 1.56 μM) was 0.016 µg/mL. For the same compound, the “MIC (μg/ml) with MBX2319 at concn (μM) of: 3.13” value (shortened to “MIC (μg/ml) with MBX2319 … 3.13”) ([8]; ΔtolC, MBX2319 3.13 μM) was 0.016 µg/mL, the MIC [9, 12] was 0.016 µg/mL and the “MIC (μg/ml) with MBX2319 at concn (μM) of: 1.56” value ([9]; ΔacrB, MBX2319 1.56 μM) was 0.016 µg/mL. For the same compound, the “MIC (μg/ml) with MBX2319 … 3.13” value ([9]; ΔacrB, MBX2319 3.13 μM) was 0.016 µg/mL, the “MIC (μg/ml) with MBX2319 at concn (μM) of: 6.25” value (“MIC (μg/ml) with MBX2319 … 6.25” for short) ([9]; ΔacrB, MBX2319 6.25 μM) was 0.016 µg/mL and the “MIC (μg/ml) with MBX2319 at concn (μM) of: 25” value (“MIC (μg/ml) … (μM) of: 25” below) ([9]; ΔacrB, MBX2319 25 μM) was 0.016 µg/mL. For the same compound, the “MIC (μg/ml) with MBX2319 at concn (μM) of: 50” value (“MIC (μg/ml) with MBX2319 … 50” for short) ([9]; ΔacrB, MBX2319 50 μM) was 0.016 µg/mL, the “MIC (μg/ml) with MBX2319 at concn (μM) of: 12.5” value (from here on “MIC (μg/ml) with MBX2319 … 12.5”) ([9]; ΔacrB, MBX2319 […]) was 0.016 µg/mL and the “MIC (μg/ml) with MBX2319 … 3.13” value ([10]; MBX2319 3.13 μM) was 0.016 µg/mL. For the same compound, the “MIC (μg/ml) with MBX2319 … 6.25” value ([10]; MBX2319 6.25 μM) was 0.016 µg/mL, the “MIC (μg/ml) … (μM) of: 25” value ([10]; MBX2319 25 μM) was 0.016 µg/mL and the “MIC (μg/ml) with MBX2319 … 50” value ([10]; MBX2319 50 μM) was 0.016 µg/mL. For the same compound, the “MIC (μg/ml) with MBX2319 … 12.5” value ([10]; MBX2319 […]) was 0.016 µg/mL, the MIC [11, 12] was 0.063 µg/mL and the “MIC (μg/ml) with MBX2319 … 6.25” value ([11]; ΔacrF, MBX2319 6.25 μM) was 0.016 µg/mL. The “MIC (μg/ml) … (μM) of: 25” value ([11]; ΔacrF, MBX2319 25 μM) was 0.016 µg/mL, the “MIC (μg/ml) with MBX2319 … 50” value ([11]; ΔacrF, MBX2319 50 μM) was 0.016 µg/mL and the “MIC (μg/ml) with MBX2319 … 12.5” value ([11]; ΔacrF, MBX2319 […]) was 0.016 µg/mL.
